Results taken from EP4628519A1, “ORGANOGERMANIUM(IV) CARBOXYLATES AND MIXTURES OF GERMANIUM CARBOXYLATES WITH ORGANIC ACID ANHYDRIDES AS CATALYSTS” (Technische Universität Graz, priority 2024, dated 2025).

How the values were obtained:
[1] = Solubility of the germanium carboxylates in solvents (gravimetry or NMR)
Stability in water = conditions: result in words

In the case of `CCCCCCCCCCCC(=O)[O][Ge]([O]C(=O)CCCCCCCCCCC)([O]C(=O)CCCCCCCCCCC)[O]C(=O)CCCCCCCCCCC` [Ge(OLau)4, germanium(IV) tetralaurate], the “solubility, times higher” value ([1]; Ge(OLau)4 relative to Ge(OAc)4) was “around 2 times”, the solubility ([1]; in benzene, determined via NMR) was 11000 µg/mL and the “solubility in organic solvents” value ([1]; result in words) was “poorly soluble”.

For `CC(=O)OC(=O)C[CH2][Ge]([O]C(C)=O)([O]C(C)=O)[O]C(C)=O` [(PAA)Ge(OAc)3], the “solubility in organic solvents” value ([1]; result in words) was “good soluble”.

For `CC(=O)[O][Ge]([O]C(C)=O)([O]C(C)=O)[c]1ccccc1` [PhGe(OAc)3], the “solubility in organic solvents” value ([1]; result in words) was “good soluble”.

In the case of `CC(=O)[O][Ge]([O]C(C)=O)([O]C(C)=O)[O]C(C)=O` [Ge(OAc)4, germanium(IV) tetraacetate], the stability in water (Stability in water) was “stable”, the “solubility in H2O” value ([1]; H2O, result in words) was “good soluble” and the “m(Ge(OAc)4)” value ([1]; Solvent Benzene, Method NMR) was 2.7 g/L. The “m(Ge(OAc)4)” value ([1]; Solvent Chloroform, Method NMR) was 4.8 g/L, the “m(Ge(OAc)4)” value ([1]; Solvent DCM, Method Gravimetry) was 4.2 g/L and the “m(Ge(OAc)4)” value ([1]; Solvent H2O, Method Gravimetry) was 170 g/L. The “m(Ge(OAc)4)” value ([1]; Solvent THF, Method Gravimetry) was 4.3 g/L, the “m(Ge(OAc)4)” value ([1]; Solvent Toluene, Method Gravimetry) was 2.6 g/L and the solubility ([1]; in toluene, at room temperature) was 2600 µg/mL. The “solubility in organic solvents” value ([1]; result in words) was “poorly soluble”.

For `COC(=O)C[CH2][Ge]([O]C(C)=O)([O]C(C)=O)[O]C(C)=O` [(PME)Ge(OAc)3], the “solubility in organic solvents” value ([1]; result in words) was “good soluble”.
